Reference: ChEMBL document CHEMBL1201861, “Genomics of Drug Sensitity in Cancer screening data, Wellcome Trust Sanger Institute”

Assays:
Experiment in all cases: cells
Type in all cases: functional, cell-based, Homo sapiens
[1] = tested on: HL-60; conditions: Homo sapiens, HL-60;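 further: growth inhibition of human HL-60 cells, read out with a cell viability assay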
Description: SANGER: Inhibition of human HL-60 cell growth in a cell viability assay.

[2] = tested on: SBC-1; conditions: Homo sapiens, SBC-1;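 further: cell viability assay measuring growth inhibition of the SBC-1 cell line, IC50 being the concentration that halves growth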
Description: SANGER: Inhibition of human SBC-1 cell growth in a cell viability assay.

[3] = tested on: D-392MG; conditions: Homo sapiens, D-392MG
[4] = tested on: NB13; conditions: Homo sapiens, NB13;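 further: cell viability readout measuring growth inhibition of human NB13 cells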
Description: SANGER: Inhibition of human NB13 cell growth in a cell viability assay.

[5] = tested on: EW-13; conditions: Homo sapiens, EW-13;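 further: growth inhibition of EW-13 cells, read out with a cell viability assay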
Description: SANGER: Inhibition of human EW-13 cell growth in a cell viability assay.

[6] = tested on: COR-L88; conditions: Homo sapiens, COR-L88;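 further: growth inhibition of COR-L88 cells, read out with a cell viability assay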
Description: SANGER: Inhibition of human COR-L88 cell growth in a cell viability assay.

[7] = tested on: NCI-H1299; conditions: Homo sapiens, NCI-H1299;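 further: growth inhibition of human NCI-H1299 cells, read out by a cell viability assay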
Description: SANGER: Inhibition of human NCI-H1299 cell growth in a cell viability assay.

[8] = tested on: HCC2218; conditions: Homo sapiens, HCC2218;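 further: cell viability assay read-out, with IC50 given as the concentration that inhibits growth of the cell line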
Description: SANGER: Inhibition of human HCC2218 cell growth in a cell viability assay.

[9] = tested on: EOL1; conditions: Homo sapiens, EOL1;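 further: growth inhibition of EoL-1 cells, read out by a cell viability assay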
Description: SANGER: Inhibition of human EoL-1-cell cell growth in a cell viability assay.

[10] = tested on: LXF-289 cell line; conditions: Homo sapiens, LXF-289
Description: SANGER: Inhibition of human LXF-289 cell growth in a cell viability assay.

[11] = tested on: NB6; conditions: Homo sapiens, NB6;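 further: growth inhibition of NB6 cells, read out by a cell viability assay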
Description: SANGER: Inhibition of human NB6 cell growth in a cell viability assay.

[12] = tested on: HCE-4; conditions: Homo sapiens, HCE-4;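 further: cell viability assay measuring inhibition of growth in the human HCE-4 cell line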
Description: SANGER: Inhibition of human HCE-4 cell growth in a cell viability assay.

[13] = tested on: A3-KAW; conditions: Homo sapiens, A3-KAW;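 further: growth inhibition of human A3-KAW cells, read out with a cell viability assay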
Description: SANGER: Inhibition of human A3-KAW cell growth in a cell viability assay.

[14] = tested on: NB17; conditions: Homo sapiens, NB17;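 further: growth inhibition of NB17 cells, read out with a cell viability assay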
Description: SANGER: Inhibition of human NB17 cell growth in a cell viability assay.

[15] = tested on: DOHH-2; conditions: Homo sapiens, DOHH-2;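 further: growth inhibition of human DOHH-2 cells, read out with a cell viability assay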
Description: SANGER: Inhibition of human DOHH-2 cell growth in a cell viability assay.

[16] = tested on: SK-UT-1; conditions: Homo sapiens, SK-UT-1;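 further: growth inhibition of SK-UT-1 cells, measured by a cell viability assay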
Description: SANGER: Inhibition of human SK-UT-1 cell growth in a cell viability assay.

[17] = tested on: COLO-800; conditions: Homo sapiens, COLO-800;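 further: growth inhibition of COLO-800 cells, read out with a cell viability assay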
Description: SANGER: Inhibition of human COLO-800 cell growth in a cell viability assay.

[18] = tested on: MN-60; conditions: Homo sapiens, MN-60;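 further: growth inhibition of the MN-60 cell line, determined with a cell viability assay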
Description: SANGER: Inhibition of human MN-60 cell growth in a cell viability assay.

[19] = tested on: LB2518-MEL; conditions: Homo sapiens, LB2518-MEL;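 further: growth inhibition of human LB2518-MEL cells, measured with a cell viability assay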
Description: SANGER: Inhibition of human LB2518-MEL cell growth in a cell viability assay.

[20] = tested on: ES7; conditions: Homo sapiens, ES7;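 further: growth inhibition of cultured human ES7 cells, read out as cell viability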
Description: SANGER: Inhibition of human ES7 cell growth in a cell viability assay.

[21] = tested on: SCH; conditions: Homo sapiens, SCH;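 further: growth inhibition of human SCH cells, read out in a cell viability assay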
Description: SANGER: Inhibition of human SCH cell growth in a cell viability assay.

[22] = tested on: KS-1; conditions: Homo sapiens, KS-1;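 further: growth inhibition of KS-1 cells, read out with a cell viability assay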
Description: SANGER: Inhibition of human KS-1 cell growth in a cell viability assay.

[23] = tested on: DEL; conditions: Homo sapiens, DEL;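 further: growth inhibition of the human DEL cell line, read out with a cell viability assay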
Description: SANGER: Inhibition of human DEL cell growth in a cell viability assay.

[24] = tested on: MLMA; conditions: Homo sapiens, MLMA;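 further: growth inhibition of MLMA cells (human), determined through a cell viability readout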
Description: SANGER: Inhibition of human MLMA cell growth in a cell viability assay.

[25] = tested on: U-266; conditions: Homo sapiens, U-266
Description: SANGER: Inhibition of human U-266 cell growth in a cell viability assay.

[26] = tested on: TE-12; conditions: Homo sapiens, TE-12;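 further: growth inhibition of TE-12 cells, read out by a cell viability assay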
Description: SANGER: Inhibition of human TE-12 cell growth in a cell viability assay.

[27] = tested on: NCI-H2126; conditions: Homo sapiens, NCI-H2126;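 further: growth inhibition of the cancer cell line, determined with a cell viability readout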
Description: SANGER: Inhibition of human NCI-H2126 cell growth in a cell viability assay.

[28] = tested on: SF-126; conditions: Homo sapiens, SF-126;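 further: growth inhibition of human SF126 cells, read out with a cell viability assay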
Description: SANGER: Inhibition of human SF126 cell growth in a cell viability assay.

[29] = tested on: ES6; conditions: Homo sapiens, ES6;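 further: growth inhibition of human ES6 cells, read out with a cell viability assay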
Description: SANGER: Inhibition of human ES6 cell growth in a cell viability assay.

[30] = tested on: SK-N-DZ; conditions: Homo sapiens, SK-N-DZ;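 further: growth inhibition of the cancer cell line, read out through a viability assay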
Description: SANGER: Inhibition of human SK-N-DZ cell growth in a cell viability assay.

[31] = tested on: NCI-H1092; conditions: Homo sapiens, NCI-H1092;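 further: cell growth inhibition measured with a cell viability assay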
Description: SANGER: Inhibition of human NCI-H1092 cell growth in a cell viability assay.

[32] = tested on: NKM-1; conditions: Homo sapiens, NKM-1;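 further: growth inhibition of NKM-1 cells, read out with a cell viability assay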
Description: SANGER: Inhibition of human NKM-1 cell growth in a cell viability assay.

[33] = tested on: ATN-1; conditions: Homo sapiens, ATN-1;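 further: growth inhibition of human ATN-1 cells, read out with a cell viability assay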
Description: SANGER: Inhibition of human ATN-1 cell growth in a cell viability assay.

[34] = tested on: HDLM-2; conditions: Homo sapiens, HDLM-2;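 further: cell viability assay measuring suppression of HDLM-2 proliferation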
Description: SANGER: Inhibition of human HDLM-2 cell growth in a cell viability assay.

[35] = tested on: SK-PN-DW; conditions: Homo sapiens, SK-PN-DW;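 further: growth inhibition measured with a viability assay on these cells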
Description: SANGER: Inhibition of human SK-PN-DW cell growth in a cell viability assay.

[36] = tested on: A253 cell line; conditions: Homo sapiens, A253;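 further: growth inhibition of A253 cells, read out with a cell viability assay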
Description: SANGER: Inhibition of human A253 cell growth in a cell viability assay.

[37] = tested on: 697; conditions: Homo sapiens
Description: SANGER: Inhibition of human 697 cell growth in a cell viability assay.

[38] = tested on: RKO; conditions: Homo sapiens, RKO;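 further: growth inhibition of human RKO cells, read out with a cell viability assay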
Description: SANGER: Inhibition of human RKO cell growth in a cell viability assay.

[39] = tested on: Lu-65; conditions: Homo sapiens, Lu-65;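 further: growth inhibition of Lu-65 cancer cells, read out by a cell viability assay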
Description: SANGER: Inhibition of human LU-65 cell growth in a cell viability assay.

[40] = tested on: MZ1-PC; conditions: Homo sapiens, MZ1-PC;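 further: cell viability assay measuring growth inhibition of human MZ1-PC cells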
Description: SANGER: Inhibition of human MZ1-PC cell growth in a cell viability assay.

[41] = tested on: ES5; conditions: Homo sapiens, ES5;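 further: growth inhibition of human ES5 cells, read out by a cell viability assay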
Description: SANGER: Inhibition of human ES5 cell growth in a cell viability assay.

[42] = tested on: NCI-H1395; conditions: Homo sapiens, NCI-H1395;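 further: cell viability assay read-out quantifying reduced proliferation of human NCI-H1395 cells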
Description: SANGER: Inhibition of human NCI-H1395 cell growth in a cell viability assay.

[43] = tested on: LB831-BLC; conditions: Homo sapiens, LB831-BLC;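 further: growth inhibition of LB831-BLC cells, read out with a cell viability assay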
Description: SANGER: Inhibition of human LB831-BLC cell growth in a cell viability assay.

[44] = tested on: TE-5; conditions: Homo sapiens, TE-5;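 further: inhibition of cell growth, read out by a cell viability assay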
Description: SANGER: Inhibition of human TE-5 cell growth in a cell viability assay.

[45] = tested on: K562; conditions: Homo sapiens, K562
Description: SANGER: Inhibition of human K-562 cell growth in a cell viability assay.

[46] = tested on: TE-8; conditions: Homo sapiens, TE-8;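 further: growth inhibition of TE-8 cells, measured with a cell viability readout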
Description: SANGER: Inhibition of human TE-8 cell growth in a cell viability assay.

[47] = tested on: SJSA-1; conditions: Homo sapiens, SJSA-1;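 further: growth inhibition of human SJSA-1 cells, read out through a cell viability measurement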
Description: SANGER: Inhibition of human SJSA-1 cell growth in a cell viability assay.

[48] = tested on: LAMA-84; conditions: Homo sapiens, LAMA-84;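 further: growth inhibition of LAMA-84 cells, read out with a cell viability assay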
Description: SANGER: Inhibition of human LAMA-84 cell growth in a cell viability assay.

[49] = tested on: TGW; conditions: Homo sapiens, TGW;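 further: growth inhibition of human TGW cells, read out with a cell viability assay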
Description: SANGER: Inhibition of human TGW cell growth in a cell viability assay.

[50] = tested on: HC-1; conditions: Homo sapiens, HC-1;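 further: growth inhibition of HC-1 cells measured by a cell viability assay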
Description: SANGER: Inhibition of human HC-1 cell growth in a cell viability assay.

Measured: IC50

CC(C)CCN1c2nc(Nc3cc(F)c(O)c(F)c3)ncc2N(C)C(=O)C1C (stereo not given)
1.63 µM: [13]
0.695 µM: [2]
3.83 µM: [40]
2.24 µM: [41]
2.54 µM: [17]
2.02 µM: [37]
4.61 µM: [25]
> 5 µM: [3] | [4] | [5] | [6] | [8] | [12] | [14] | [15] | [16] | [19] | [21] | [22] | [23] | [24] | [26] | [27] | [28] | [29] | [30] | [31] | [32] | [34] | [35] | [36] | [39] | [44] | [45]
1.05 µM: [49]
0.884 µM: [1]
4.4 µM: [10]
2.47 µM: [42]
2.46 µM: [11]
2.45 µM: [18]
1.02 µM: [9]
1.13 µM: [48]
0.916 µM: [20]
3.19 µM: [46]
2.94 µM: [7]
3.54 µM: [43]
2.67 µM: [47]
4.42 µM: [33]
4.73 µM: [38]

CCN(CC)CCCCNc1ncc2cc(-c3cc(OC)cc(OC)c3)c(NC(=O)NC(C)(C)C)nc2n1 [PD-173074]
0.33 µM: [9]
> 2 µM: [1] | [2] | [3] | [4] | [5] | [6] | [7] | [8] | [10] | [11] | [12] | [13] | [14] | [15] | [16] | [17] | [18] | [19] | [20] | [21] | [22] | [23] | [24] | [25] | [26] | [27] | [28] | [29] | [30] | [31] | [32] | [33] | [34] | [35] | [36] | [37] | [38] | [39] | [40] | [41] | [42] | [43] | [44] | [45] | [46] | [47] | [48] | [49]

COc1cc2c(Nc3ccc(NC(=O)c4ccccc4)cc3)ncnc2cc1OCCCN1CCOCC1
0.739 µM: [37]
1.7 µM: [17]
2.49 µM: [46]
2.84 µM: [25]
2.54 µM: [10]
1.04 µM: [2]
0.707 µM: [38]
1.76 µM: [48]
0.187 µM: [9]
2.75 µM: [23]
1.82 µM: [16]
1.4 µM: [15]
1 µM: [41]
1.17 µM: [32]
> 4 µM: [3] | [4] | [5] | [6] | [7] | [8] | [11] | [12] | [13] | [14] | [18] | [19] | [20] | [21] | [22] | [24] | [26] | [27] | [28] | [29] | [30] | [31] | [33] | [34] | [35] | [36] | [39] | [40] | [42] | [43] | [44] | [45] | [47] | [49]
2.59 µM: [1]

COc1cc2ncn(-c3cc(OCc4ccccc4S(C)(=O)=O)c(C#N)s3)c2cc1OC [GSK-319347A]
> 5 µM: [1] | [2] | [3] | [4] | [5] | [6] | [7] | [8] | [9] | [10] | [11] | [13] | [14] | [15] | [16] | [17] | [18] | [19] | [20] | [21] | [22] | [23] | [24] | [25] | [26] | [27] | [28] | [29] | [30] | [50] | [31] | [32] | [33] | [34] | [35] | [36] | [37] | [38] | [39] | [40] | [41] | [42] | [43] | [44] | [45] | [46] | [47] | [48] | [49]

CC1(C)CNc2cc(NC(=O)c3cccnc3NCc3ccncc3)ccc21 [MOTESANIB]
> 2 µM: [1] | [2] | [3] | [4] | [5] | [6] | [7] | [8] | [10] | [11] | [12] | [13] | [14] | [15] | [16] | [17] | [18] | [19] | [20] | [21] | [22] | [23] | [24] | [25] | [26] | [27] | [28] | [29] | [31] | [32] | [33] | [34] | [35] | [36] | [37] | [38] | [39] | [40] | [41] | [42] | [43] | [44] | [45] | [46] | [47] | [48] | [49]
< 0.00781 µM: [9]
0.549 µM: [30]
